Data reported in ChEMBL document CHEMBL4507276 (2021).

Columns and labels:
[1] = target: MAP kinase-activated protein kinase 2 (Homo sapiens) (UniProt P49137); details: Compound concentration 1000.0 nM
[2] = target: 5-hydroxytryptamine receptor 1D (Homo sapiens) (UniProt P28221); assay: 5HT1D/H AG Cerep selectivity data (BI); details: filed as agonist, Compound concentration 20.0 uM
[3] = target: T1, 5-hydroxytryptamine receptor 3A (Homo sapiens) (UniProt P46098); assay: 5HT3/H Cerep selectivity data (BI); details: Compound concentration 20.0 uM
T1 sequence (whole entry): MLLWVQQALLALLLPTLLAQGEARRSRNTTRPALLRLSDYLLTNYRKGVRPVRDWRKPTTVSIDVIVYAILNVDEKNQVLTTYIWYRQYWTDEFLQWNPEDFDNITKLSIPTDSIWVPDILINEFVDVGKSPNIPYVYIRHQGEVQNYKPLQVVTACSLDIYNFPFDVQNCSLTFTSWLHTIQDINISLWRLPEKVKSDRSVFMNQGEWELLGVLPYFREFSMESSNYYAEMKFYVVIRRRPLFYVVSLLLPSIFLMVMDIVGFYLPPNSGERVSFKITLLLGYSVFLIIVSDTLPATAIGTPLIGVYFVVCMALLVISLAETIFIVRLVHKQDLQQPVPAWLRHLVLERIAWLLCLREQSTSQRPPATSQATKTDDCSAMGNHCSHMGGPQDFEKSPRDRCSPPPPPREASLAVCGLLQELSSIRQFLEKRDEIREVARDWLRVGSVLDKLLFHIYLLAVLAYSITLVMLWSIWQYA

[4] = target: Histamine H2 receptor (Homo sapiens) (UniProt P25021); assay: H2/APT/HS Cerep selectivity data (BI); details: filed as antagonist, Compound concentration 20.0 uM
[5] = target: cGMP-inhibited 3',5'-cyclic phosphodiesterase 3B (Homo sapiens) (UniProt Q13370); assay: PDE3B Cerep selectivity data (BI); details: Compound concentration 20.0 uM
[6] = target: Thyroid hormone receptor alpha (Rattus norvegicus) (UniProt P63059); assay: TRTH_AGON Cerep selectivity data (BI); details: filed as agonist, Compound concentration 20.0 uM
[7] = target: T2, D(4) dopamine receptor (Homo sapiens) (UniProt P21917); assay: D4.2/H Eurofins-Panlabs selectivity data (BI); details: Compound concentration 10.0 uM
T2 sequence (whole entry): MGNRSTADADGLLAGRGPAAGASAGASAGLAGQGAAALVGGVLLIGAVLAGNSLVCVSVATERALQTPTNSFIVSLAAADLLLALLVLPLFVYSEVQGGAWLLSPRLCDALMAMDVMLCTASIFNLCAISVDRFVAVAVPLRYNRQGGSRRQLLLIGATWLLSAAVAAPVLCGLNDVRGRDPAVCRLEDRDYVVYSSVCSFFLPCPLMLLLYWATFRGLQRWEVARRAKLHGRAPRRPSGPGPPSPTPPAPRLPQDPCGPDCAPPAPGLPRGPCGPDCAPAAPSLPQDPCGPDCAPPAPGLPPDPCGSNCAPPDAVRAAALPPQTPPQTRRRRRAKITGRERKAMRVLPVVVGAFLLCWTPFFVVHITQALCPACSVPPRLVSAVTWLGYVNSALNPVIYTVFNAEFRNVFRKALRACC

[8] = target: Gamma-aminobutyric acid receptor subunit alpha-1 (Rattus norvegicus) (UniProt P62813); assay: GABAA MUSCIMOL CENT Eurofins-Panlabs selectivity data (BI); details: Compound concentration 10.0 uM
[9] = target: Histamine H3 receptor (Homo sapiens) (UniProt Q9Y5N1); assay: H3/H Eurofins-Panlabs selectivity data (BI); details: Compound concentration 10.0 uM
[10] = target: ATP-sensitive inward rectifier potassium channel 1 isoform X1 (Mesocricetus auratus) (UniProt A0A1U8CU73); assay: K+/KATP/HA Eurofins-Panlabs selectivity data (BI); details: Compound concentration 10.0 uM
[11] = target: Kappa-type opioid receptor (Homo sapiens) (UniProt P41145); assay: KAPPA/HU Eurofins-Panlabs selectivity data (BI); details: Compound concentration 10.0 uM
[12] = target: T3, Activin receptor type-1B (Homo sapiens) (UniProt P36896); assay: ACVR1B Invitrogen selectivity data (BI); details: Compound concentration 3.0 uM
T3 sequence (whole entry): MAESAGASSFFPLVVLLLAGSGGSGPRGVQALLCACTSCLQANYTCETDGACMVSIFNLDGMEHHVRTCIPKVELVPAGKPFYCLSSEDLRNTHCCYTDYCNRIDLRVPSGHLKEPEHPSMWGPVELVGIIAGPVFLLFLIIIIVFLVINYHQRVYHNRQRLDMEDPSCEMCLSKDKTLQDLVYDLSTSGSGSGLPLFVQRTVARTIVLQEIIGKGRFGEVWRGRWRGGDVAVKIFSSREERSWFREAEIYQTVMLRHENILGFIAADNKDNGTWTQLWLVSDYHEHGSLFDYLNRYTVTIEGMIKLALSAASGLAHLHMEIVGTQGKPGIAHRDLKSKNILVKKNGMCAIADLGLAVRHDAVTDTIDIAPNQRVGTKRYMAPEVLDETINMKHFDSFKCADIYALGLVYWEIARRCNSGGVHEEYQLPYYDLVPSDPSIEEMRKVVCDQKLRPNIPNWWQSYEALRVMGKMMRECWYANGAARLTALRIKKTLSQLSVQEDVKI

[13] = target: Cyclin-dependent kinase 1/cyclin B (Homo sapiens) (UniProt P06493+P14635+Q8WWL7+O95067); assay: CDK1/CYCLINB Invitrogen selectivity data (BI); format: protein-complex assay; details: Compound concentration 3.0 uM
[14] = target: Leukocyte tyrosine kinase receptor (Homo sapiens) (UniProt P29376); assay: LTK Invitrogen selectivity data (BI); details: Compound concentration 3.0 uM
[15] = tested on: Hepatocyte growth factor receptor (Homo sapiens), P08581 [M1250T]; assay: MET M1250T Invitrogen selectivity data (BI); details: Compound concentration 3.0 uM
[16] = target: Phosphatidylinositol 4-kinase beta (Homo sapiens) (UniProt Q9UBF8); assay: PI4KB Invitrogen selectivity data (BI); details: Compound concentration 3.0 uM
[17] = tested on: Proto-oncogene tyrosine-protein kinase receptor Ret (Homo sapiens), P07949 [V804L]; assay: RET V804L Invitrogen selectivity data (BI); details: Compound concentration 3.0 uM
[18] = target: Ribosomal protein S6 kinase alpha-4 (Homo sapiens) (UniProt O75676); assay: RPS6KA4 Invitrogen selectivity data (BI); details: Compound concentration 3.0 uM
[19] = target: T4, Serine/threonine-protein kinase Sgk3 (Homo sapiens) (UniProt Q96BR1); assay: SGKL Invitrogen selectivity data (BI); details: Compound concentration 3.0 uM
T4 sequence (whole entry): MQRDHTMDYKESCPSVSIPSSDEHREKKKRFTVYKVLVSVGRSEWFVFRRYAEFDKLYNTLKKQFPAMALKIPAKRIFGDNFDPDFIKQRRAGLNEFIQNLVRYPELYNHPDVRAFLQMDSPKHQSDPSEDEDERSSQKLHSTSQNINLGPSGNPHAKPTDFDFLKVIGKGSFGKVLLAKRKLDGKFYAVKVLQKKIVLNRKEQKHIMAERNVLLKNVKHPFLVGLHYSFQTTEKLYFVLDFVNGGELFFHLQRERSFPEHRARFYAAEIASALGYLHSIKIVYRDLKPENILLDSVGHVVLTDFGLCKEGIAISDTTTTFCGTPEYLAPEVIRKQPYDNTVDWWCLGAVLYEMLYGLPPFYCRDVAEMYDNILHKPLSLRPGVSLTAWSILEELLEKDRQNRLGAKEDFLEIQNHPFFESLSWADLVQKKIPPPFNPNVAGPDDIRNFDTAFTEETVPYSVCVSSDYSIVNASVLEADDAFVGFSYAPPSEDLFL

Measured: residual activity

Chain of Leukocyte tyrosine kinase receptor (Homo sapiens) (P29376 whole entry): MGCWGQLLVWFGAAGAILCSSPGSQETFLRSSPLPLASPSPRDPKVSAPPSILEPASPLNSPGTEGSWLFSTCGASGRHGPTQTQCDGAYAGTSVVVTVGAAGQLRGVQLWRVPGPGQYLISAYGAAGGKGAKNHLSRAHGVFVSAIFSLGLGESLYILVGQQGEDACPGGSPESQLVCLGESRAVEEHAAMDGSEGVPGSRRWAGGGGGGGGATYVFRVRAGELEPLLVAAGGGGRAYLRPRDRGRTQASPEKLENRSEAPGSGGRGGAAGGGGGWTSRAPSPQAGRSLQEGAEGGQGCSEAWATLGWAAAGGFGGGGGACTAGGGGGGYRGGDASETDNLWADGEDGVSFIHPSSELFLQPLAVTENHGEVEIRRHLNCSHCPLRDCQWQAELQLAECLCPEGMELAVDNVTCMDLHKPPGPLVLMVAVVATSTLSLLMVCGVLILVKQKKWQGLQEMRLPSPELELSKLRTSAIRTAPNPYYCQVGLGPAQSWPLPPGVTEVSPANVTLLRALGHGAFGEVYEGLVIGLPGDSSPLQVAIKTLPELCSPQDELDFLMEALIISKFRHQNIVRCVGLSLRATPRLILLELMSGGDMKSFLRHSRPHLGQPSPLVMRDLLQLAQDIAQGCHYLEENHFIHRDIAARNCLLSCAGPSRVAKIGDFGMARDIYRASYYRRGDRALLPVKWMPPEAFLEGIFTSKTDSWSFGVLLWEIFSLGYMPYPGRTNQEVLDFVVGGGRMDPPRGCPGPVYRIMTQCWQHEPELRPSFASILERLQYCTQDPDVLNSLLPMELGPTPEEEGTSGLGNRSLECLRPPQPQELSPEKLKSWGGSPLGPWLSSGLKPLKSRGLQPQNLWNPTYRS
Chain of Proto-oncogene tyrosine-protein kinase receptor Ret (Homo sapiens), P07949 [V804L] (P07949 whole entry V804L): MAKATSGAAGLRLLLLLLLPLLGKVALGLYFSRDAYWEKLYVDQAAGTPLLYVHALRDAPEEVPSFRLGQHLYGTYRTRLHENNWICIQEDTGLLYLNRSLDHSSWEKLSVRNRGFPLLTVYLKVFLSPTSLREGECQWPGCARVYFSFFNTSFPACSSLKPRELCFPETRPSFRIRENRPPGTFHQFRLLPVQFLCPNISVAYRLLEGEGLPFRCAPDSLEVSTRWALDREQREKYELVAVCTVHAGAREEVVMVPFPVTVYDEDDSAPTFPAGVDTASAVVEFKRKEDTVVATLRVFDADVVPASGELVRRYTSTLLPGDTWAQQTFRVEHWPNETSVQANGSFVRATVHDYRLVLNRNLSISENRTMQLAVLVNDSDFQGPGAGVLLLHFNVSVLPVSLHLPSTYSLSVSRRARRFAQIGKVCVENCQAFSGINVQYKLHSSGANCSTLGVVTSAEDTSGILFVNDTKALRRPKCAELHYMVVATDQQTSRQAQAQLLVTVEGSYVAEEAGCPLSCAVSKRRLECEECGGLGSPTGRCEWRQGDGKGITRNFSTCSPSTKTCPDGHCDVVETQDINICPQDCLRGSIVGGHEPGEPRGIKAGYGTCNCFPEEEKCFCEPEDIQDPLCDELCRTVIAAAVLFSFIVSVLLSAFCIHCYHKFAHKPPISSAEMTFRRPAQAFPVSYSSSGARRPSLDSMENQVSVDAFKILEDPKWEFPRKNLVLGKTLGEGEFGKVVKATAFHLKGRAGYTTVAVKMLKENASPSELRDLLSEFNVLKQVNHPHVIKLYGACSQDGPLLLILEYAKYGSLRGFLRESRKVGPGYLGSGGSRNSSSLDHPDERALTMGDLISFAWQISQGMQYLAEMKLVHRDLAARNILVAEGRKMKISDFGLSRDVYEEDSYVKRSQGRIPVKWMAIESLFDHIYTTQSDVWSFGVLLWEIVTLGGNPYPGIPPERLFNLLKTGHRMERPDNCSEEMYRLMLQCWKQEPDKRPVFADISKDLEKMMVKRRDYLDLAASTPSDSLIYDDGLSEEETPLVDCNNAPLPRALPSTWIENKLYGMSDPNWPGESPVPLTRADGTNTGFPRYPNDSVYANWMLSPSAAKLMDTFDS
Chain of 5-hydroxytryptamine receptor 1D (Homo sapiens) (P28221 whole entry): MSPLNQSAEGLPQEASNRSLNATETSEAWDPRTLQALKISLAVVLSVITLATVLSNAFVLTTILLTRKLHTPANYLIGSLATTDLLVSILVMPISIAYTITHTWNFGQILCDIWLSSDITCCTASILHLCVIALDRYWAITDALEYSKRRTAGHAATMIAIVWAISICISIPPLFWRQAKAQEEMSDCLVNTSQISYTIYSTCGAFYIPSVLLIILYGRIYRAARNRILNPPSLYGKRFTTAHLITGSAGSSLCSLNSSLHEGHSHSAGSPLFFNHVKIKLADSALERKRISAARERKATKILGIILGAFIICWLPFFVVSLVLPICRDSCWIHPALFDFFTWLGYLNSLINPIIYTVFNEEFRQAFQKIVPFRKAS
Chain of Gamma-aminobutyric acid receptor subunit alpha-1 (Rattus norvegicus) (P62813 whole entry): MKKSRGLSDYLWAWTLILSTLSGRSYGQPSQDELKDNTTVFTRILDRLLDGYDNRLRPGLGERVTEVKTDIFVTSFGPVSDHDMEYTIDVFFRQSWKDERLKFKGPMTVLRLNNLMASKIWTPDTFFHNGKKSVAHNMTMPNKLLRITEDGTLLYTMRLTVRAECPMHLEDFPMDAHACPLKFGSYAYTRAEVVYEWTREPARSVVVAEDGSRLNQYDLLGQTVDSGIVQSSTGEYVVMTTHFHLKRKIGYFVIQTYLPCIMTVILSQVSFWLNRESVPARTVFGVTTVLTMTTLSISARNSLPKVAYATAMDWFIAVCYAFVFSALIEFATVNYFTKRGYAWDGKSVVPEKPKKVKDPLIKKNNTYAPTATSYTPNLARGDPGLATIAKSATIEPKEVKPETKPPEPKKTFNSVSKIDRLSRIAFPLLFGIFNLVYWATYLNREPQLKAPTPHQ
Chain of cGMP-inhibited 3',5'-cyclic phosphodiesterase 3B (Homo sapiens) (Q13370 whole entry, looked up): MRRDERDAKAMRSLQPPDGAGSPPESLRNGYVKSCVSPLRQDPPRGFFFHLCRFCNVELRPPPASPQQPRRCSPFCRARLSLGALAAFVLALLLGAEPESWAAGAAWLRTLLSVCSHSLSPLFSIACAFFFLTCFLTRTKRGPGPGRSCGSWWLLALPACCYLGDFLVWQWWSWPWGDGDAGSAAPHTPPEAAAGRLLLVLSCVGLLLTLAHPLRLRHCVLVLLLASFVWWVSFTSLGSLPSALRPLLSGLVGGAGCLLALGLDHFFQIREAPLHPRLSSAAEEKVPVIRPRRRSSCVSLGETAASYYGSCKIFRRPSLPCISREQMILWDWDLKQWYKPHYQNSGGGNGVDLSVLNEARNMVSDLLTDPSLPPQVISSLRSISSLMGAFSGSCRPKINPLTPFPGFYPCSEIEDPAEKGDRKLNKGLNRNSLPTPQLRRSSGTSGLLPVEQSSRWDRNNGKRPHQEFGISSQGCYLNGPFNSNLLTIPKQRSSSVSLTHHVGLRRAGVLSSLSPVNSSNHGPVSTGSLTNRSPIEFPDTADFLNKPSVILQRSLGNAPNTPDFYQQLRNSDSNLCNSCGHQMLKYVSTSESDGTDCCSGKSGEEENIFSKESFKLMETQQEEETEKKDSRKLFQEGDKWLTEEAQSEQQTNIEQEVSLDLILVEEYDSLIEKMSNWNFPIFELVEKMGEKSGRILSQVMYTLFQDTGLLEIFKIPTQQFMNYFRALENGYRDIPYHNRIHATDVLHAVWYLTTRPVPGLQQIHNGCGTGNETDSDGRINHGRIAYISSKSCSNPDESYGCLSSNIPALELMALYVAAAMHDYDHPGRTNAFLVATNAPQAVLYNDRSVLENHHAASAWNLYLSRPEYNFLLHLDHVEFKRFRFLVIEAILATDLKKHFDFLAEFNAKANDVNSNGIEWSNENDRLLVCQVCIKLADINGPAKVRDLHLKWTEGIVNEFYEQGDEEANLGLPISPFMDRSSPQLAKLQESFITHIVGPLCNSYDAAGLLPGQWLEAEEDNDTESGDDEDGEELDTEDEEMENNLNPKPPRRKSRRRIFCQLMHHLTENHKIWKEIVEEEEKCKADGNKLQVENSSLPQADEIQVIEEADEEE
Chain of Histamine H3 receptor (Homo sapiens) (Q9Y5N1 whole entry, canonical isoform): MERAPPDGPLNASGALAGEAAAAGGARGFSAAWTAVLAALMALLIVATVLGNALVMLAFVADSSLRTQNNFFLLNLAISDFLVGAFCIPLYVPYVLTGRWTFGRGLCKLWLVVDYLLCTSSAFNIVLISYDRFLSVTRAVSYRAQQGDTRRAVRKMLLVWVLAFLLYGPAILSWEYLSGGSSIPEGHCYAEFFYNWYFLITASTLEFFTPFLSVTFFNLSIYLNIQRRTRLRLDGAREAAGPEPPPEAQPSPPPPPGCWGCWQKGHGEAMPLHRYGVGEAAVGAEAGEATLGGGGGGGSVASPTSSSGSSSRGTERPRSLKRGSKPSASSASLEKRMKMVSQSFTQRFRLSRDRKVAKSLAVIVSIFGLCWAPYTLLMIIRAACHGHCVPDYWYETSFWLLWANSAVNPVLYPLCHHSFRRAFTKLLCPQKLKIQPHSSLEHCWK
Chain of Kappa-type opioid receptor (Homo sapiens) (P41145 whole entry): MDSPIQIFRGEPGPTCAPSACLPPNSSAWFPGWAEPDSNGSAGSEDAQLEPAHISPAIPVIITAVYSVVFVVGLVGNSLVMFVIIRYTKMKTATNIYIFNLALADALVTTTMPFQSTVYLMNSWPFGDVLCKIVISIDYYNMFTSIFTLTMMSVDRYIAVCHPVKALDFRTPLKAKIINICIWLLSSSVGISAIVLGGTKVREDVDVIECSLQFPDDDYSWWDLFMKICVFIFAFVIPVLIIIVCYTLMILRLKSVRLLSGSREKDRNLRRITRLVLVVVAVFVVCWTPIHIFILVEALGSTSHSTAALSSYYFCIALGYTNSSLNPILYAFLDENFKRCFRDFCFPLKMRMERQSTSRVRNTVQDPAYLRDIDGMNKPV

CN(C)C(=O)Cn1cc(-c2nc(C3(c4ccc(-c5cnc(N)nc5)cc4)CC3)no2)cn1 [BI 0153]
inactive: [1] 99%

CN(C)C(=O)Cn1cc(-c2nc([C@@](C)(c3ccc(-c4cnc(N)nc4)cc3)C3CC3)no2)cn1 [BI 665915]
inactive: [2] 102% | [3] 100% | [4] 96% | [5] 95% | [6] 129% | [7] 98% | [8] 100% | [9] 123% | [10] 97% | [11] 102% | [12] 104% | [13] 99% | [14] 96.5% | [15] 105% | [16] 95% | [17] 72% | [18] 103% | [19] 101%
